Data as given in paper PMC8792198 (Journal of pharmaceutical sciences, 2021).
Values joined by “and” are separate entries in the source; they are usually repeats but may differ in a detail not shown here. Equal values may be shown once.

Tests used:
OATP5A1 = OATP5A1 (Homo sapiens, UniProt Q9H2Y9); test: Uptake into HEK293 cells stably overexpressing OATP5A1; format: in vitro ADME; conditions: for transport by OATP5A1 in HEK293-OATP5A1 cells: pH 7.4
placental BM vesicles [1] = conditions: cited from earlier work
OATP2A1 [2] = molecular target: T1, OATP2A1 (Homo sapiens, UniProt Q92959); conditions: 2 μM pravastatin
placental BM vesicles [3] = test: Glutarate-stimulated uptake of pravastatin by placental BM vesicles; format: in vitro ADME, human
placental AM vesicles = test: Glutarate-stimulated uptake of pravastatin by placental AM vesicles; format: in vitro ADME, human; conditions: 1 μM [3H]Pravastatin, 37°C
OATP2A1 [4] = molecular target: T1, OATP2A1; test: Uptake into HEK293 cells stably overexpressing OATP2A1; format: in vitro ADME; conditions: 1 min
OATP1A2 = molecular target: T2, OATP1A2 (Homo sapiens, UniProt P46721); test: Uptake into HEK293 cells transiently overexpressing OATP1A2; format: in vitro ADME
T2 sequence (P46721 1-670): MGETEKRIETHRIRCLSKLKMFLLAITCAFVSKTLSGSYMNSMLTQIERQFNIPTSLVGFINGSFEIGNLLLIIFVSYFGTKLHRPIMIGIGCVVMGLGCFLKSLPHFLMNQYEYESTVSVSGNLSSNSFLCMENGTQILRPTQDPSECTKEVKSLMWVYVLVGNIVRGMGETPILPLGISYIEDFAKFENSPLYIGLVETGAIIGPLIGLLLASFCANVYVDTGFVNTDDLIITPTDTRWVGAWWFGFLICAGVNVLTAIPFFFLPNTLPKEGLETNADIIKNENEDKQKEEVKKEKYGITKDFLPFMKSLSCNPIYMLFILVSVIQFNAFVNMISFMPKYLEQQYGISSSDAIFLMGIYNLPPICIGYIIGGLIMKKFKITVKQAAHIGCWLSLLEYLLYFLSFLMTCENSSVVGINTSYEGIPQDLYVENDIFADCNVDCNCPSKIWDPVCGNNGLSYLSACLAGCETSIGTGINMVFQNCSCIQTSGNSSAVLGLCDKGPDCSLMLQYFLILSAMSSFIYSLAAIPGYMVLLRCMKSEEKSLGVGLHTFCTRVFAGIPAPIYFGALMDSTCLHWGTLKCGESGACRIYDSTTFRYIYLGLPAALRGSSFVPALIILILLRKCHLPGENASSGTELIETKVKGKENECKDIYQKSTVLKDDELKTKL

OAT4 [5] = molecular target: T3, OAT4 (Homo sapiens, UniProt Q9NSA0); test: OAT4-mediated efflux of preloaded pravastatin from T-REx-OAT4-293 cells; format: in vitro ADME
T3 sequence (Q9NSA0 1-550): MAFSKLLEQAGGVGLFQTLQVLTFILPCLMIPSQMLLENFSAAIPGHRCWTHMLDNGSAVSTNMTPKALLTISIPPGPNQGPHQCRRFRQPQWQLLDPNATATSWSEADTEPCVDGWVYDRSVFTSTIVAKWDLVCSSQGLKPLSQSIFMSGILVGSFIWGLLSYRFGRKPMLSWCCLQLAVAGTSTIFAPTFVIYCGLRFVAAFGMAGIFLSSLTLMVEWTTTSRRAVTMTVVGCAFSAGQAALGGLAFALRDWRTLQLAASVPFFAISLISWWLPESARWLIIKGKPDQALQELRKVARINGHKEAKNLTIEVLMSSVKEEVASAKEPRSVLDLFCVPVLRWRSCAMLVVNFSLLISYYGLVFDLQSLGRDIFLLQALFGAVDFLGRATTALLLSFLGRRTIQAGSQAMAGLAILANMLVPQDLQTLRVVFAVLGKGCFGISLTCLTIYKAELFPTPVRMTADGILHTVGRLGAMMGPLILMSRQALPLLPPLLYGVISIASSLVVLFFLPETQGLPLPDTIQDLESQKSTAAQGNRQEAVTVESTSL

OATP2B1 = molecular target: T4, OATP2B1 (Homo sapiens, UniProt O94956)
T4 sequence (O94956 1-709): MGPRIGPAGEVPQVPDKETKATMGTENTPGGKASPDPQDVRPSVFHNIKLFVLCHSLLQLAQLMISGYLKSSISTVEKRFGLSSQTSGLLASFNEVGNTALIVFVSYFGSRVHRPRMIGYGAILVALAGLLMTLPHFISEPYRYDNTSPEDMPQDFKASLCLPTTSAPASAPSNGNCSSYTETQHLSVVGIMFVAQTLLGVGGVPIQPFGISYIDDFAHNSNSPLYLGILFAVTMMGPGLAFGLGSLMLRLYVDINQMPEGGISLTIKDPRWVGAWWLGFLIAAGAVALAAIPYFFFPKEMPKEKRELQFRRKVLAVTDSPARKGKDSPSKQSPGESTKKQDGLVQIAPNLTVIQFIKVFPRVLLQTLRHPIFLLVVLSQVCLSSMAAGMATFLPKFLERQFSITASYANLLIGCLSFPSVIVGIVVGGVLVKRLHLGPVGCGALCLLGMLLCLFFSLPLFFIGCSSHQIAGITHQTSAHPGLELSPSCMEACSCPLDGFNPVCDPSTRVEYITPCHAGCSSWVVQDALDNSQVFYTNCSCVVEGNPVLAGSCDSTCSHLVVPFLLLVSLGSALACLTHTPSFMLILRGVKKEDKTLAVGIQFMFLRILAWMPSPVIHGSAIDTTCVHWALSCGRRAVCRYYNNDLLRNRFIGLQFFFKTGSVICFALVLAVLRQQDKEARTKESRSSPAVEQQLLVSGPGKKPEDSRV

placenta = conditions: ex vivo placental perfusion; cited from earlier work
OAT4 [6] = conditions: S2 cells expressing OAT4, single component saturation kinetics; ref 20 (Nakagomi-Hagihara et al, 2007); cited from earlier work
[7] = pregnant women taking 10 mg daily dose; cited from earlier work
OAT4 [8] = molecular target: T3, OAT4; test: Uptake into tetracycline-inducible T-REx-OAT4-293 cells; conditions: for Uptake, Net (transporter-mediated) / Uptake, Transporter-expressing cells: OAT4, 4 μM pravastatin; for Kt / Vmax: OAT4-mediated uptake, physiological pH, 37°C; for Uptake, Control: control cells for OAT4, 4 μM pravastatin
OAT4 [9] = molecular target: T3, OAT4; test: Effect of E3S on OAT4-mediated uptake of pravastatin; format: in vitro ADME; conditions: E3S (200 μM), 2 μM pravastatin
[10] = OATP2A1-mediated uptake, physiological pH, 37°C
[11] = OATP1A2-mediated uptake at pH 6.0
[12] = OATP1A2-mediated uptake, physiological pH, 37°C, 30 s
[13] = GA (glutaric acid preload), 30 s
[14] = higher concentration range (low affinity)

Chain of OATP5A1 (Q9H2Y9 whole entry): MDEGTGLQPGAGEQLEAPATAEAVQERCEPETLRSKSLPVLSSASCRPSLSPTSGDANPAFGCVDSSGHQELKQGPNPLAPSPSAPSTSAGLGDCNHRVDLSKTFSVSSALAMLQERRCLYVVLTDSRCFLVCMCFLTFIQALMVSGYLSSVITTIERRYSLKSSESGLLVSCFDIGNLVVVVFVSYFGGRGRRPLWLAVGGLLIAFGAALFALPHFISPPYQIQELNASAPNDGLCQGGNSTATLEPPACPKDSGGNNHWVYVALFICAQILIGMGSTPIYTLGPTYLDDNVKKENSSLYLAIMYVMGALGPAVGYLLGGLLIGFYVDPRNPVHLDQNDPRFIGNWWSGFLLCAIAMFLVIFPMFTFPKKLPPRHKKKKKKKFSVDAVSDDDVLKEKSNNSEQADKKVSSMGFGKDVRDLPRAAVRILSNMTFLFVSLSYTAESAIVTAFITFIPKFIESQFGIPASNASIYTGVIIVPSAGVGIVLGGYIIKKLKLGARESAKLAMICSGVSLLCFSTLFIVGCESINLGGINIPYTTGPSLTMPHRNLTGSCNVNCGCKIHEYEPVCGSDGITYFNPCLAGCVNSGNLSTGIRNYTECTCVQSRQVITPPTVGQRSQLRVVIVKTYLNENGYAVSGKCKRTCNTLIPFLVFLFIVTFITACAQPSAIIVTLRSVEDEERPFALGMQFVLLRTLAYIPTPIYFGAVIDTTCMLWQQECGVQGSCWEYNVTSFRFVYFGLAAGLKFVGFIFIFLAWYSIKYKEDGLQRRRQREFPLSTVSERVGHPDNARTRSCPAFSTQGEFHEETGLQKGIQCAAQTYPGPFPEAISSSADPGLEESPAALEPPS

CCCCC[C@H](O)/C=C/[C@H]1[C@H](O)CC(=O)[C@@H]1C/C=C\CCCC(=O)O [PE2, Prostaglandin-E2]
transport by OATP5A1 in HEK293-OATP5A1 cells (OATP5A1): none of the substrates tested, namely pravastatin, E3S, PE2 and fluorescein were found to be transported

O=C1OC2(c3ccc(O)cc3Oc3cc(O)ccc32)c2ccccc21 [fluorescein, sodium fluorescein]
transport by OATP5A1 in HEK293-OATP5A1 cells (OATP5A1): none of the substrates tested, namely pravastatin, E3S, PE2 and fluorescein were found to be transported

C[C@]12CC[C@H](O)CC1=CC[C@@H]1[C@@H]2CC[C@]2(C)C(=O)[C@H](O)C[C@@H]12 [16α-hydroxydehydroepiandrosterone]
increase of the uptake into placental BM vesicles by glutarate trans-stimulation (placental BM vesicles [1]): 56%

CCCc1nc(C(C)(C)O)c(C(=O)O)n1Cc1ccc(-c2ccccc2-c2nnn[nH]2)cc1 [olmesartan]
increase of the uptake into placental BM vesicles by glutarate trans-stimulation (placental BM vesicles [1]): 33%

O=C(O)Cc1ccccc1Nc1c(Cl)cccc1Cl [diclofenac]
decrease of the net, OATP2A1-dependent, uptake of pravastatin (OATP2A1 [2]; diclofenac 20 μM): 50% | effect on uptake of pravastatin into OATP2A1-expressing cells (OATP2A1 [2]; diclofenac 200 μM): did not result in a statistically significant decrease

CC[C@H](C)C(=O)O[C@H]1C[C@H](O)C=C2C=C[C@H](C)[C@H](CC[C@@H](O)C[C@@H](O)CC(=O)O)[C@H]21 [Pravastatin]
net (glutarate-dependent) uptake into BM vesicles at 4°C (placental BM vesicles [3]; 4°C, 0.5-2 μM): negligible | trans-stimulatory effect of glutarate on the uptake into placental BM vesicles (increase) (placental BM vesicles [3]; BM vesicles, glutarate preload, Fig 1A): 18% | glutarate-stimulated uptake into BM vesicles (placental BM vesicles [3]; pravastatin concentrations below 1 μM, 37°C): did not detect any glutarate-stimulated uptake | glutarate-stimulated uptake into BM vesicles, concentration dependence (placental BM vesicles [3]; two-fold increase of substrate from 1 μM to 2 μM, 37°C): proportional increase | glutarate-stimulated uptake into AM vesicles (placental AM vesicles): insignificant | Uptake, Transporter-expressing cells (OATP2A1 [4]; OATP2A1, 1 μM pravastatin, 37°C, neutral pH): 0.46 ± 0.06 pmol/mg protein/min | Kt (OATP2A1 [4]; [10]): 188 ± 109 µM | Vmax (OATP2A1 [4]; [10]): 73.8 ± 19.2 pmol/mg protein*min^−1 | Uptake, Control (OATP2A1 [4]; control cells for OATP2A1, 1 μM pravastatin, neutral pH): 0.26 ± 0.06 pmol/mg protein/min | Uptake, Net (transporter-mediated) (OATP1A2; OATP1A2, 0.75 μM [3H]Pravastatin, 30 s, neutral pH): 1.06 ± 0.32 pmol/mg protein/min | Uptake, Transporter-expressing cells (OATP1A2; OATP1A2, 0.75 μM [3H]Pravastatin, 37°C, 30 s, neutral pH): 1.73 ± 0.31 pmol/mg protein/min | apparent Kt (OATP1A2; [11]): 23.6 ± 2.87 µM | apparent Vmax (OATP1A2; [11]): 361 ± 29.3 pmol/mg protein*min^−1 | Kt (OATP1A2; [12]): 1.60 ± 0.97 µM | Vmax (OATP1A2; [12]): 4.08 ± 0.72 pmol/mg protein*min^−1 | Uptake, Control (OATP1A2; control cells for OATP1A2, 0.75 μM [3H]Pravastatin, 30 s, neutral pH): 0.66 ± 0.15 pmol/mg protein/min | Uptake, Transporter-expressing cells (OATP5A1; OATP5A1, 10 μM pravastatin, 37°C, 1 min, neutral pH): 1.85 ± 0.18 pmol/mg protein/min | Uptake, Net (transporter-mediated) (OATP5A1; OATP5A1, 10 μM pravastatin, 1 min, neutral pH): 0.23 ± 0.01 pmol/mg protein/min | Uptake, Control (OATP5A1; control cells for OATP5A1, 10 μM pravastatin, 1 min, neutral pH): 1.62 ± 0.18 pmol/mg protein/min | transport by OATP5A1 in HEK293-OATP5A1 cells (OATP5A1): none of the substrates tested, namely pravastatin, E3S, PE2 and fluorescein were found to be transported | remaining preloaded pravastatin (OAT4 [5]; OAT4-expressing cells, chloride-free condition, 60 s efflux, preload 4 μM): 39 ± 2% | estimated Ke of the pravastatin efflux (OAT4 [5]; chloride-free condition, OAT4-expressing cells): 2.1 ± 0.5 10^−2s^−1 | estimated Ke of the pravastatin efflux (OAT4 [5]; chloride-free condition, control cells): 3.6 ± 2.1 10^−2s^−1 | estimated Ke of the pravastatin efflux (OAT4 [5]; presence of extracellular chloride, OAT4-expressing cells): 2.6 ± 0.6 10^−2s^−1 | estimated Ke of the pravastatin efflux (OAT4 [5]; presence of extracellular chloride, control cells): 3.0 ± 1.0 10^−2s^−1 | Uptake, Transporter-expressing cells (OATP2B1; OATP2B1, 0.75 μM [3H]Pravastatin, 37°C, 1 min, neutral pH): 0.71 ± 0.13 pmol/mg protein/min | Uptake, Net (transporter-mediated) (OATP2B1; OATP2B1, 0.75 μM [3H]Pravastatin, 1 min, neutral pH): 0.10 ± 0.16 pmol/mg protein/min | Uptake, Control (OATP2B1; control cells for OATP2B1, 0.75 μM [3H]Pravastatin, 1 min, neutral pH): 0.61 ± 0.13 pmol/mg protein/min | OATP2B1-mediated uptake (OATP2B1; pH 7.4): did not detect any OATP2B1-mediated uptake | clearance index, direction of transfer (placenta): higher in the fetal-to-maternal direction than in the maternal-to-fetal direction | drug crossing the placenta from the maternal to fetal direction (placenta): 18 ± 4% | Kt (OAT4 [6]): 257 µM | steady state plasma concentrations [7]: nanomolar range | Uptake, Net (transporter-mediated) (OAT4 [8]; 30 s, chloride, no glutarate preload): 2.86 ± 0.27 pmol/mg protein/min | Uptake, Net (transporter-mediated) (OAT4 [8]; Cl-free uptake buffer, 30 s): 7.15 ± 0.59 pmol/mg protein/min | Uptake, Transporter-expressing cells (OAT4 [8]; Cl-free uptake buffer, 30 s): 8.66 ± 0.80 ^*^, # pmol/mg protein/min | Uptake, Net (transporter-mediated) (OAT4 [8]; [13]): 5.17 ± 0.84 pmol/mg protein/min | Uptake, Transporter-expressing cells (OAT4 [8]; [13]): 7.04 ± 0.97 ^*^, # pmol/mg protein/min | Kt (OAT4 [8]; [14]): 295 ± 99 µM and 295 ± 99.0 µM | Vmax (OAT4 [8]; [14]): 345 ± 54.8 pmol/mg protein*min^−1 | Vmax (OAT4 [8]; lower concentration range (high-affinity)): 42.0 ± 93.4 pmol/mg protein*min^−1 | Kt (OAT4 [8]; lower concentration range (high-affinity), 30 s): 30.5 ± 75.0 µM | Uptake, Control (OAT4 [8]; Cl-free uptake buffer, 30 s): 1.51 ± 0.24 pmol/mg protein/min | Uptake, Control (OAT4 [8]; [13]): 1.87 ± 0.25 pmol/mg protein/min

C[C@]12CC[C@@H]3c4ccc(OS(=O)(=O)O)cc4CC[C@H]3[C@@H]1CCC2=O [E3S, estrone-3-sulfate]
inhibition of OAT4-mediated uptake of pravastatin (OAT4 [9]): complete inhibition
